# “Also recorded” adds a separate entry of the source. Where two headings read alike, the source gives them in different places.
# What was measured:
# MMP-2 = target: T1, MMP-2 (Homo sapiens, UniProt P08253); experiment: De novo T-DEL selection against MMP-2, NGS decoding; type: binding; settings: for Enrichment Fold / Count: MMP2 selection; for Count: NGS sequence count per Compound ID (Figure 4a)
# T1 construct: purchased Sino Biological 10082-HNAH
# T1 sequence (P08253 110-660): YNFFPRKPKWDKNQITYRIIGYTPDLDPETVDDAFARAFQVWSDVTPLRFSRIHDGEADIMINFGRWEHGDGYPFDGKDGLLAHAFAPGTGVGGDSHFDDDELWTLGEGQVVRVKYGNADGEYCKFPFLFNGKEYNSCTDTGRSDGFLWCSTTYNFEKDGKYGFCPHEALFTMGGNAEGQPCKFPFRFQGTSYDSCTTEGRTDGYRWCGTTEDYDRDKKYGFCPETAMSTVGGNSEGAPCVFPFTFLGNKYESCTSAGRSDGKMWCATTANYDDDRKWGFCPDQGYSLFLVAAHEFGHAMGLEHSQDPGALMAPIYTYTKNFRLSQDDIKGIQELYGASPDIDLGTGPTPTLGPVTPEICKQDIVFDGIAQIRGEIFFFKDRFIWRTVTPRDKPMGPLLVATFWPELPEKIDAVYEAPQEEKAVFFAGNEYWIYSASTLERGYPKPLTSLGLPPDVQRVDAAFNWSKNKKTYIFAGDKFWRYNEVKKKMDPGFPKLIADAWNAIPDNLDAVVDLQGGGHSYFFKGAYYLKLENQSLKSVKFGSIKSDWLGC
# Source text: Matrix metalloproteinases (MMPs) are zinc-dependent endopeptidases capable of degrading and remodeling extracellular matrix components[46],[47]. They are attractive therapeutic targets as high expression levels were detected in various diseases, such as inflammatory diseases, and at different stages of cancers, including metastasis, invasion, and angiogenesis[47]–[53]. As shown in Supplementary Fig. 3c, we performed selections against the two gelatinases (human MMP-2 and human MMP-9) to identify binding fragments for later design and synthesis of small molecule inhibitors. After selection, the three sub-libraries were decoded, and the enrichment was calculated by dividing the post-selection fraction (count/total counts) by the pre-selection fraction (Fig. 4a and Supplementary Fig. 13).
# 4 µg of MMP-2/MMP-9 was dissolved in 100 µl of selection buffer containing 25 mM Tris-base, 10 mM CaCl2, 150 mM NaCl, 0.05% Tween 20, pH 7.5. 10 µl of 4-Aminophenylmercuric acetate (APMA) (100 mM) solution was added to the protein solution and incubated at 37 °C for 1 h. After activation, the solution was added on top of 40 µl pre-washed Ni-NTA resin and incubated for 30 min on a rotary shaker. The supernatant was discarded, and the resin was washed three times with the selection buffer.
# For each independent selection, three sub-libraries were mixed in the selection buffer with a final concentration of 40 nM of each sub-library in 100 µl. The mixture was heat denatured at 90 °C for 1 min and slowly cooled down to allow the formation of the trio-pharmacophore library. The dynamic dual-pharmacophore DEL was provided by DyNAbind GmbH (Merck, DYNA001).
# The assembled library was incubated with the protein-bound solid support for 2 h at RT on a rotary shaker. In parallel, selection on bare solid support served as the negative control to exclude promiscuous binders on the resin. After panning, the supernatant was discarded, and the resin was washed three times with 1 ml selection buffer. Finally, 100 µl of 50 mM Tris buffer, pH 7.4 was added to resuspend the resin and the resin was incubated at 95 °C for 5 min to denature the protein, release, and collect the bound library members.
# The eluted library members were subjected to sample preparation for NGS. NGS preparation was achieved by two-step PCR. First, the individual selection was indexed using primers containing unique sequences corresponding to each selection. The amplified product was purified from 2% agarose gel. Second, the purified DNA from all selections were pooled in equal amount and subjected to the 2nd PCR step to attach sequences compatible with the NGS flow cell and the sequencing primers. NGS was performed by Novogene UK with Novaseq 6000. Raw data files (fastq files) obtained were decoded using a custom python script and excel. The sequence reads corresponding to each sample was retrieved by searching for the correct index unique to each selection. Then, the code region was extracted from each sequence and assigned to the corresponding identity. The count of each code in each selection sample was obtained by looping through the total reads and counting the occurrence of each code. The enrichment fold of each compound was calculated by first, dividing the count by the total count to get the abundance, second, the abundance after the selection was divided by the abundance of pre-selection to reflect the distribution change of the compound. Next, the enrichment fold was plotted against the count for each member of the library to give the scatter plots as in Fig. 4.
# MMP-9 = target: T2, MMP-9 (Homo sapiens, UniProt P14780); experiment: MMP-9 inhibition assay (fluorogenic peptide substrate); type: biochemical; settings: for remaining activity at 0.078016 µM: fragment concentration 0.078016 µM; for remaining activity at 0.39008 µM: fragment concentration 0.39008 µM; for remaining activity at 1.9504 µM: fragment concentration 1.9504 µM; for remaining activity at 9.752 µM: fragment concentration 9.752 µM; for remaining activity at 0.08 µM: concentration 0.08 µM; for remaining activity at 0.39 µM: concentration 0.39 µM; for remaining activity at 1.95 µM: concentration 1.95 µM; for remaining activity at 9.75 µM: concentration 9.75 µM; for inhibitory effect: in words; for IC50: mean ± SE, n.d: not detected, Fig. 5e prints no unit, µM, read-out: IC50
# T2 construct: purchased Sino Biological 10327-HNAH
# T2 sequence (P14780 107-707 limits assumed): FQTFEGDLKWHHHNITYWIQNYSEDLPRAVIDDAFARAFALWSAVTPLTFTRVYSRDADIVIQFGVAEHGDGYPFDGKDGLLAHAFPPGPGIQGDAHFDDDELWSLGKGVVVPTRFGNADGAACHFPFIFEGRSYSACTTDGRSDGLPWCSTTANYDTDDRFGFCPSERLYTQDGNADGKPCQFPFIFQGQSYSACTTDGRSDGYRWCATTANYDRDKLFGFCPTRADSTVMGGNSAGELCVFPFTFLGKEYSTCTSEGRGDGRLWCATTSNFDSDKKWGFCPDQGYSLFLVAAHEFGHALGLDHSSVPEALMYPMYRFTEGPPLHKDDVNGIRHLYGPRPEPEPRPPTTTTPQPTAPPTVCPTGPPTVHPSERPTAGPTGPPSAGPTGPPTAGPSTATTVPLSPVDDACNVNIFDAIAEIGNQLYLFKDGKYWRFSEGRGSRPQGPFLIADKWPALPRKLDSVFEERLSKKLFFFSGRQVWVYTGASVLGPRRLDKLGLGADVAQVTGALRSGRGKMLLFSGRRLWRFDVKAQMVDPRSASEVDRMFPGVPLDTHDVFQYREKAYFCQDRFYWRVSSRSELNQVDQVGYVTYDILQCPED
# Summary of the method: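 Hydrolysis of DNP-Pro-Leu-Gly-Met-Trp-Ser-Arg (25 μM final) was tracked kinetically at em 360 nm over 30 min. Enzymes, APMA-activated and at 10 nM (MMP-9) or 6.5 nM (MMP-2) final, sat 30 min at RT with inhibitor in pH 7.5 Tris buffer with CaCl2 and Brij 35 first. Logistic fitting of Vmax against concentration gave IC50, in triplicate.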
# [1] = Figure 5b, read-out: Normalized activity (Mean)
# [2] = Figure 5b, fragment concentration 48.76 µM, read-out: Normalized activity (Mean)
# [3] = Figure 5b, fragment concentration 243.8 µM, read-out: Normalized activity (Mean)
# [4] = Figure 5b, fragment concentration 1219 µM, read-out: Normalized activity (Mean)
# [5] = MMP-9, read-out: Mean (dose-response, Supplementary fig 17)
# [6] = MMP-9, read-out: Mean (MMP-9 dose-response, Supplementary fig 15)
smiles,measurement,setting,value
O=C(O)CNC(=O)NC12CC3CC(CC(C3)C1)C2 [Compound 66],Enrichment Fold,MMP-2; sub-library SL-A (Figure 4a),8.24
same,Count,MMP-2; sub-library SL-A,13510
same,Enrichment Fold,MMP-2; sub-library SL-C (Figure 4a),0.3913
same,Count,MMP-2; sub-library SL-C,81
same,remaining activity at 0.078016 µM,MMP-9; [1],96.6%
same,remaining activity at 0.39008 µM,MMP-9; [1],92.7%
same,remaining activity at 1.9504 µM,MMP-9; [1],92.2%
same,remaining activity at 9.752 µM,MMP-9; [1],92.5%
same,remaining activity at 48.76 µM,MMP-9; [2],86.3%
same,remaining activity at 243.8 µM,MMP-9; [3],85%
same,remaining activity at 1219 µM,MMP-9; [4],74.6%
same,remaining activity at 0.08 µM,MMP-9; [5],96.6%
same,remaining activity at 0.39 µM,MMP-9; [5],92.7%
same,remaining activity at 1.95 µM,MMP-9; [5],92.2%
same,remaining activity at 9.75 µM,MMP-9; [5],92.5%
same,remaining activity at 48.76 µM,"MMP-9; MMP-9, concentration 48.76 µM, read-out: Mean (dose-response, Supplementary fig 17)",86.3%
same,remaining activity at 243.8 µM,"MMP-9; MMP-9, concentration 243.80 µM, read-out: Mean (dose-response, Supplementary fig 17)",85%
same,remaining activity at 1219 µM,"MMP-9; MMP-9, concentration 1219.00 µM, read-out: Mean (dose-response, Supplementary fig 17)",74.6%
same,inhibitory effect,MMP-9,No inhibitory effects could be measured; also recorded: did not exhibit meaningful activity
O=C(O)Cn1cnc2c(oc3ccccc32)c1=O [Compound 182],MMP2 SL-A Count,"MMP-2; NGS sequence count per SL-A member, de novo T-DEL selection against MMP-2 (Figure 4a source data)",3616
same,MMP2 SL-C Count,"MMP-2; NGS sequence count per SL-C member, de novo T-DEL selection against MMP-2 (Figure 4a source data)",971
same,MMP2 SL-A Enrichment Fold,"MMP-2; enrichment fold per SL-A member, de novo T-DEL selection against MMP-2 (Figure 4a source data)",1.934
same,MMP2 SL-C Enrichment Fold,"MMP-2; enrichment fold per SL-C member, de novo T-DEL selection against MMP-2 (Figure 4a source data)",0.9721
same,remaining activity at 0.062464 µM,"MMP-9; Figure 5b, fragment concentration 0.062464 µM, read-out: Normalized activity (Mean)",93.2%
same,remaining activity at 0.31232 µM,"MMP-9; Figure 5b, fragment concentration 0.31232 µM, read-out: Normalized activity (Mean)",98.5%
same,remaining activity at 1.5616 µM,"MMP-9; Figure 5b, fragment concentration 1.5616 µM, read-out: Normalized activity (Mean)",93.8%
same,remaining activity at 7.808 µM,"MMP-9; Figure 5b, fragment concentration 7.808 µM, read-out: Normalized activity (Mean)",101%
same,remaining activity at 39.04 µM,"MMP-9; Figure 5b, fragment concentration 39.04 µM, read-out: Normalized activity (Mean)",52.9%
same,remaining activity at 195.2 µM,"MMP-9; Figure 5b, fragment concentration 195.2 µM, read-out: Normalized activity (Mean)",20%
same,remaining activity at 976 µM,"MMP-9; Figure 5b, fragment concentration 976 µM, read-out: Normalized activity (Mean)",0%
same,remaining activity at 0.06 µM,"MMP-9; MMP-9, concentration 0.06 µM, read-out: Mean (MMP-9, Supplementary fig 16)",93.2%
same,remaining activity at 0.31 µM,"MMP-9; MMP-9, concentration 0.31 µM, read-out: Mean (MMP-9, Supplementary fig 16)",98.5%
same,remaining activity at 1.56 µM,"MMP-9; MMP-9, concentration 1.56 µM, read-out: Mean (MMP-9, Supplementary fig 16)",93.8%
same,remaining activity at 7.81 µM,"MMP-9; MMP-9, concentration 7.81 µM, read-out: Mean (MMP-9, Supplementary fig 16)",101%
same,remaining activity at 39.04 µM,"MMP-9; MMP-9, concentration 39.04 µM, read-out: Mean (MMP-9, Supplementary fig 16)",52.9%
same,remaining activity at 195.2 µM,"MMP-9; MMP-9, concentration 195.20 µM, read-out: Mean (MMP-9, Supplementary fig 16)",21%
same,remaining activity at 976 µM,"MMP-9; MMP-9, concentration 976.00 µM, read-out: Mean (MMP-9, Supplementary fig 16)",0%
same,IC50,MMP-9,48.1 µM
Cc1cc(=O)[nH]c(-n2nc(C)c(CCC(=O)O)c2C)n1 [Compound 693],MMP2 SL-A Count,"MMP-2; NGS sequence count of sub-library SL-A building block, de novo T-DEL selection against MMP-2",3710
same,MMP2 SL-C Count,"MMP-2; NGS sequence count of sub-library SL-C building block, de novo T-DEL selection against MMP-2",1010
same,MMP2 SL-A Enrichment Fold,"MMP-2; sub-library SL-A building block, de novo T-DEL selection against MMP-2",2.312
same,MMP2 SL-C Enrichment Fold,"MMP-2; sub-library SL-C building block, de novo T-DEL selection against MMP-2",1.213
same,remaining activity at 0.078016 µM,MMP-9; [1],99.9%
same,remaining activity at 0.39008 µM,MMP-9; [1],97%
same,remaining activity at 1.9504 µM,MMP-9; [1],89.6%
same,remaining activity at 9.752 µM,MMP-9; [1],87.1%
same,remaining activity at 48.76 µM,MMP-9; [2],91%
same,remaining activity at 243.8 µM,MMP-9; [3],37.1%
same,remaining activity at 1219 µM,MMP-9; [4],6.67%
same,remaining activity at 0.08 µM,MMP-9; [6],99.9%
same,remaining activity at 0.39 µM,MMP-9; [6],97%
same,remaining activity at 1.95 µM,MMP-9; [6],89.5%
same,remaining activity at 9.75 µM,MMP-9; [6],87.1%
same,remaining activity at 48.76 µM,"MMP-9; MMP-9, concentration 48.76 µM, read-out: Mean (MMP-9 dose-response, Supplementary fig 15)",91%
same,remaining activity at 243.8 µM,"MMP-9; MMP-9, concentration 243.80 µM, read-out: Mean (MMP-9 dose-response, Supplementary fig 15)",37.1%
same,remaining activity at 1219 µM,"MMP-9; MMP-9, concentration 1219.00 µM, read-out: Mean (MMP-9 dose-response, Supplementary fig 15)",6.67%
same,inhibitory effect,MMP-9,high µM range
same,IC50,MMP-9,206 ± 25.4 µM
